{
  "source": "patent US20250355001A1",
  "about": "“METHOD FOR DETECTING A TAU PROTEIN FRAGMENT IN A SAMPLE” (GTINVENT LIMITED, priority 2022, published 2025)",
  "target": "dGAE aggregates (Homo sapiens, UniProt P10636)",
  "sequence (P10636 614-708)": "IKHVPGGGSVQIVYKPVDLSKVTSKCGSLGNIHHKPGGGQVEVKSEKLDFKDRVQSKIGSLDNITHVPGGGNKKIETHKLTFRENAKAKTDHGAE",
  "test": "Epitope occlusion assay: dGAE aggregation with/without LMTM, 423 mAb capture ELISA",
  "type": "biochemical",
  "details": "LMTM 1:5 ratio, 24 h 37 °C",
  "protocol": "During dGAE aggregation in vitro, scAb binding regions on dGA/dGAE are ‘hidden’ or ‘occluded’ which leads to a loss of immunoreactivity in aggregation samples. Here we have shown the occlusion of binding regions in aggregated dGAE samples and the recovery of immunoreactivity in the presence of LMTM, a tau-aggregation inhibitor. For preparing the aggregates, 10 μl 10 mM DTT was added to 1000 μl 100 μM dGAE and agitated with/without LMTM (1:5 ratio) at 700 rpm for 24 h at 37° C. Following overnight agitation, one third of each sample was kept aside as ‘total’ and the rest was spun down at 16000×g for 30 min and separated into ‘supernatant’ and ‘pellet’. The pellet was then resuspended in half the original volume for further experiments. […] Doubling dilutions of dGAE aggregate ‘total’, ‘supernatant’ and ‘pellet’ samples at 10 μg/ml starting concentration were added to designated wells in doubling dilutions in 1×PBS. dGAE monomer (non-aggregated) was included as assay control. All double dilutions were done in final volumes of 100 μl. This was left to incubate on lab bench for 1 h followed by the addition of test scAbs at 10 μg/ml. Anti-HuCk HRP labelled secondary antibody was added as described previously and ELISA data generated is represented using the graph below.",
  "data": [
    {"molecule": "CN(C)c1ccc2c(c1)Sc1cc(N(C)C)ccc1N2.CS(=O)(=O)O.CS(=O)(=O)O", "note": "[LMTM, reference compound]", "values": [
      {"measurement": "effect on dGAE aggregation", "value": "preventing the aggregation event"}
    ]}
  ]
}
